Here are results for six molecules from patent publication US10842767B2, “Use of ketone esters for prevention of CNS oxygen toxicity” (University of South Florida, priority 2011, dated 2020).

Series [1] in a line: Blood ketones (BHB, AcAc, acetone) and glucose after oral gavage. To be noted: for blood BHB level versus control (words) / effect on blood glucose / blood AcAc / acetone level: ~10 g/kg gavage; for effect on blood glucose: over 4 hrs, relative to control (water); for blood AcAc / acetone level: acetone at 60 min; for duration of elevation of blood ketones: single oral/intragastric administration. It is filed as in vivo, rat. The method, then:
To determine the time course of ketosis, 18 adult male Sprague-Dawley rats (250-350 grams), pathogen-free, were purchased from a vendor (Harlan) and shipped 7 days after being implanted with carotid catheters. The rats were food (not water) deprived for 18 hours prior to the start of the experiment. […] Whole blood samples (10 μl) were acquired for analysis of glucose and BHB at USF utilizing a commercially available glucose/ketone monitoring system (Nova Max® Plus) at time 0, 30, 60, 120, 180 and 240 min. In addition, heparinized blood samples (200 μl) were collected into Eppendorf tubes at time 0, 30, 60, 120, 180 and 240 min. Samples were processed for the detection and quantification of BHB, AcAc, and acetone at Case Western Reserve University, Mouse Metabolic Phenotyping Center (MMPC). Briefly, samples were chilled on ice for 30 s, centrifuged in a micro-centrifuge (13,000 G) for 3-5 min and plasma (>100 μl), treated with reducing reagent of cold 0.2M sodium borodeuteride (NaBD4; Sigma, 205591, CAS 15681-89-7) dissolved in 0.1M NaOH (8.4 mg NaBD4 in 1 ml of 0.1M NaOH) and then immediately frozen on dry ice before storing at −80° C. Acetone was analyzed at the 60 minute time point, which was the predicted peak of blood AcAc levels (Desrochers et al. 1995). 300 μl of whole blood were collected in addition to the above collections, stabilized with cold 0.2M NaBD4, and then immediately frozen on dry ice. Samples were stored at −80° C. until analyzed for ketones. Internal standards of [^2H6]BHB or [^2H8]isopropanol were added to the treated plasma or blood samples (50 μl or 15 μl) and the BHB, AcAc (as M+1 of BHB) or acetone (as 2-propanol) metabolites were analyzed by gas chromatography-mass spectrometry (GC-MS) using an Agilent 5973 mass spectrometer, linked to a 6890 gas chromatograph equipped with an autosampler. Briefly, GC-MS conditions were either EI or CI mode (electron or chemical ionization mode); the samples were detected by selected ion monitoring as the BHB- and AcAc-trimethylsilyl derivatives (EI) or the derivative of acetone-pentafluorobenzoyl (CI). […]
Ketone measurements were taken at 30, 60, 120, 180 and 240 minutes. Blood plasma was treated with sodium borodeuteride (NaB2H4) to stabilize ketone concentration and then assayed by GC-MS. The rapid rise relating to blood ketones from BD-AcAc2 is due primarily from rapid desterfication in blood and tissues.

The conditions of series [2]: for blood pH after administration (FIG. 20): from 7.45.
For series [3] the following is noted: in vivo; cited from earlier work.
Series [4] relates to primary cultures of rat cortical neurons. Put plainly: Superoxide anion production (DHE fluorescence) in primary cortex neurons exposed to HBO2 or amyloid beta. Type of series: cell-based. The settings on record: 60 min 5 ATA O2, NBO and HBO. The protocol:
Primary dissociated neuronal cultures of the hippocampus and cortex are acquired from Brain Bits LLC, to increase time efficiency and to minimize cost associated with purchasing rats. Hippocampal or cortical tissue from Brain Bits (shipped in Hibernate®) are enzymatically and mechanically dissociated via pipette trituration. Neurons are plated on 12 mm glass coverslips and allowed to adhere for 1-2 hrs in an incubator maintained at 9-20% O2 in a humidified atmosphere. Cultures are maintained in media purchased from Brain Bits, including NbActiv1® and NbActive4. […] Fluorescent probes (for use with fluorescence and confocal microscopy)
List of fluorescence probes that will be purchased from Invitrogen: • Dihydroethidium, DHE (1-10 μM; Exλ 525, Emλ 590) detects intracellular ·O2^− generation (Bindokas et al. 1996; D'Agostino et al. 2007). • Calcein-AM (4 μM; Exλ 490, Emλ 535) detects cell volume and monitors cell viability (Crowe, 1995; Inglefield, 1998; Inglefield, 1999). • Ethidium Homodimer-1, EH-1 (6 μM; Exλ 525, Emλ 590) enters cells upon membrane damage and thus labels dead or dying cells (Bickler and Hansen 1998; Pinheiro et al. 2006). Fluorescence and Confocal Microscopy […]
Presence of intracellular ROS is measured by detection of superoxide anion using Dihydroethidium (DHE). […] Cells are washed in PBS and then visualized using fluorescent microscopy or quantified using spectrophotometry.

The test system of series [5] is rats exposed to 5 ATA O2 (CNS oxygen toxicity seizures). As to the kind of experiment: Latency to seizure (CNS-OT) in rats breathing hyperbaric oxygen at 5 ATA, radio-telemetry EEG. It is filed as in vivo, rat. To be noted: for increase in latency to seizure (LS) compared to control (water): rats, 5 ATA O2, ~10 g/kg (3 ml) gavage 30 min before dive. The text has this:
All animal procedures were done in accordance with the University of South Florida Institutional Animal Care and Use Committee (IACUC) guidelines. Adult male Sprague-Dawley rats (n=60), 250-300 grams, were obtained from Harlan, anesthetized in 3-5% isoflurane (in O2) and implanted with a 4ET radio-transmitter (Data Sciences International, DSI) using sterile surgical technique. One pair of leads (positive and negative poles) was implanted in the costal diaphragm at the junction with the abdominal wall for diaphragmatic electromyogram (dEMG) signals, one pair of electrodes was inserted in the pectoral muscle to acquire electrocardiogram (ECG) data, and two pairs of wires were embedded in the skull between Bregma and Lambda, with one lead on either side of midline for each pair (EEG recordings). The EMG wires were not inserted into crural diaphragmatic muscle because of the high risk of pneumothorax due to the thinness of the muscle (419 to 630 μm). 4ET radio-transmitters also monitored core body temperature and physical activity. Rats were weighed immediately before surgery and subsequently once every 7 days, just prior to the weekly exposures to HBO2. After surgery, every animal recovered for ≥1 week.
The radiotelemetry system consisted of an implantable 4ET radio-transmitter able to amplify and broadcast signals via a receiver (DSI PhysioTel, model RPC-2) connected to an acquisition interface unit (ACQ 7700 Ponemah) via electrical penetrations in the wall of the hyperbaric chamber. The acquisition interface unit was connected to a computer for real time data collection and storage. The same acquisition unit also recorded chamber pressure and temperature, which were measured, respectively, […] directly connected to the acquisition system via BNC (Bayonet Neill-Concelman) cables. Each animal was continuously monitored via a video camera (AXIS 221 Network Camera) and the video of each experiment was recorded as well.
The hyperbaric system consisted of two main elements: 1) a plexiglass chamber (˜3 liter capacity, Diamond Box, Buxco, Electronics Inc., model PLY3114), that housed the rat during the experiment, and 2) a hyperbaric chamber (Reimers System Inc.—7.8 ATA MWP), that contained the plexiglass chamber and functioned as the pressure vessel. Both chambers were connected to an air compressor (oil-less rotary scroll compressor—model DK6086, Powerex).
During each experiment (hyperbaric hyperoxia), both the main chamber and the animal chamber were filled with air. Rats were placed into the plexiglass chamber and allowed ten minutes to acclimate, at which time the plexiglass chamber was flushed with 100% O2. The animal was then allowed 15 minutes to acclimate before both chambers were compressed to 5 ATA (58.8 PSIG) at a rate of 0.7 ATA/min. […] Each experiment was visually monitored via a live camera. LS was calculated from the moment at which the internal and the external chambers reached 5 ATA until the onset of convulsions, identified as high-amplitude, high frequency spikes lasting 10 to 30 sec, followed by polyspikes and wave formation concurrent with tonic-clonic motions of forelimbs and head. […]
The details of this example are explained in the Materials and Methods section above. Briefly, the effects of ketone esters (KEs) in preventing CNS-OT in rats were assessed before, during and after HBO2 exposure by measuring various parameters. […]

Where “and” joins values, the source holds several entries; their conditions need not be identical. Equal entries are not always repeated. Entries after “also recorded” stand apart in the source; their conditions may differ. Where two headings read alike, the source gives them in different places.

For `C[C@H](O)CCO` [BD, R,S-1,3-butanediol, reference compound], the “blood BHB level” value in series [1] (rats, 10 g/kg oral gavage) is above 5 mM. Besides, in series [1] (rats), the “blood BHB level versus control (words)” value is reported as “significant increase in BHB”, the “effect on blood glucose” value is “no significant effect on blood glucose levels” and the “blood AcAc / acetone level” value is “only modest elevation in AcAc; also recorded: remained low or undetectable”. For the same molecule, in series [1] (rats, listed as 1,3-butanediol), the “blood BHB level versus control (words)” value is given as “elevated blood levels of β-hydroxybutyrate”. Also, in series [2] (acute administration), the “acidosis” value was “mild nonpathological acidosis”. For the same molecule, in series [2] (after about 30 minutes), the “mean decrease of blood pH compared to control (pH~7.5)” value (“mean decrease of blood pH” below) was 0.05. Besides, in series [2] (after about one hour), the “mean decrease of blood pH” value was 0.1. In addition, in series [2], the “blood pH after administration (FIG. 20)” value came out at 7.35.

Regarding “(R)-1,3-butanediol ester [BHB ester, reference compound]”, the “blood BHB level versus control (words)” value in series [1] (rats) is recorded as “elevated blood levels of β-hydroxybutyrate”.

Consider MCT oil, for which the “level of ketones produced by supplementation” value in series [3] was below 500 µM.

For `Cc1ccccc1NC(=N)Nc1ccccc1C` [DTG, 1,3,-di-o-tolylguanidine], the “effect on superoxide production under hyperoxia” value in series [4] was “prevented the hyperoxia-induced increase in superoxide production”.

`CC(=O)CC(=O)OCCC(C)OC(=O)CC(C)=O` (stereo not shown) [BD-AcAc2, R,S-1,3-butanediol acetoacetate diester]: the total ketones in series [1] (about 30 minutes after gavage) was above 5 mM. In addition, the “total blood ketones (BHB, AcAc and acetone)” value in series [1] (after 1 hr, average) is above 6 mM. The “blood AcAc level” value in series [1] (rats, 10 g/kg oral gavage) is on record as above 3 mM. In series [1] (rats, 10 g/kg oral gavage), the “blood BHB level” value is above 3 mM. For the same molecule, the “blood BHB level versus control (words)” value in series [1] (rats) was “significant increase in BHB and AcAc at 30 minutes”. The “effect on blood glucose” value in series [1] (rats) is listed as “does not elevate blood glucose”; in series [1] (rats, listed as KE), “no significant effect on blood glucose levels”. Moreover, in series [1] (rats, listed as KE), the “blood AcAc / acetone level” value was “significantly higher at 60 minutes; also recorded: increased significantly”. For the same molecule, the “sustained elevation of total ketones” value in series [1] (single oral administration, for over 4 hrs) is on record as above 6 mM. In addition, the “duration of elevation of blood ketones” value in series [1] is “over 4 h”; in series [1] (listed as KE), 4 h and > 4 h. In series [1] (within about 60 minutes after administration), this molecule yielded a blood acetone level of around 0.7 mM. Moreover, the “increase in latency to seizure (LS) compared to control (water)” value in series [5] is above 570%; in series [5] (listed as KE) it was 574±115% and 574±116%; in series [5] (listed as dKE) it was 570%. The “mean decrease of blood pH” value was 0.05 in series [2] (after about 30 minutes) and 0.1 in series [2] (after about one hour). In addition, in series [2] (during the 4 hour experiment), the “blood pO2” value is above 120 mmHg. Besides, the “blood pH after administration (FIG. 20)” value in series [2] came out at 7.35. The “increase in blood pO2 levels” value in series [2] (significant and sustained) was “approximately 30%”.

Regarding `CC(=O)CC(=O)OCCC(C)O` (stereo not shown) [BD-AcAc, R,S-1,3-butanediol acetoacetate monoester], the “latency to seizure, single rat EEG (FIG. 7)” value in series [5] (HBO2 at 60 PSI (5 ATA O2), same rat without ketone ester about 8 minutes) is listed as 110 min. The “increase in latency to seizure (LS) compared to control (water)” value in series [5] is given as 285%.
